# Patent publication US5340807A, “Tricyclic compounds and intermediates thereof” (priority 1991, dated 1994)
# Legend:
# serum cholesterol level = experiment: Inhibition effect on serum cholesterol level in hamster with dietary hyperlipemia; type: in vivo; details: Golden hamster, 2% cholesterol feed for 3 days; 30 mg/kg orally once a day
# Method: Inhibition effect on serum cholesterol level in hamster with dietary hyperlipemia
# Golden hamster (SLC, male, age of 6 weeks) was made free access to feed containing 2% cholesterol for 3 days. Each test compound was suspended in olive oil and orally administered once a day in a dose of 30 mg/kg during the feeding. (A: Test Group administered with the test compound, B: Control Group administered with olive oil only). In Group C, feed free from cholesterol was fed for 3 days. On the fourth day, blood sample was collected from the descending aorta under pentobarbital anesthesia and cholesterol level in serum was determined. The total cholesterol level in serum of each group was determined and the inhibition rate for the test compound was calculated according to the following equation. [formula]
# [1] = test system: acyl coenzyme A: cholesterol acyltransferase (ACAT); experiment: Test for ACAT inhibitory activity (microsome fraction prepared from rabbit liver); type: biochemical; details: 10^-6 M, 37° C., 10 minutes
# Method: Test for ACAT inhibitory activity The test for ACAT inhibitory activity was performed by a modified method of the method of Brecher et al. Biochim. Biophys. […] The radioactivity of the cholesterol ester spot was determined by a liquid scintillation counter. The radio-activity for each test compound was calculated by the difference between the radioactivity with the microsome fraction and the radioactivity without the microsome fraction. The radioactivity of control was determined in a similar manner without any test compound.
# male ddy strain mice = experiment: Test for acute toxicity (minimum lethal dose, oral); type: in vivo; details: mortality observed seven days after administration
# Method: Groups of 3 male ddy strain mice weighing 20±1 g were used. The test compounds were orally administered. Seven days after administration, the mortality was observed and the minimum lethal dose (MLD) was determined.
SMILES,Inhibition Rate (%) of total cholesterol level in serum (serum cholesterol level),Inhibiting rate(%) of ACAT [1],"Acute Toxicity (MLD), minimum lethal dose (male ddy strain mice)"
"Cc1ccc2c(c1)C(C(=O)Nc1c(C(C)C)cccc1C(C)C)c1ccccc1CO2 (stereo not drawn) [Compound 4, 6,11-Dihydro-N-(2,6-diisopropylphenyl)-2-methyldibenz[b,e]-oxepin-11-carboxamide]",70%,98%,> 300 mg/kg
"CC(C)c1cccc(C(C)C)c1NC(=O)C1c2ccccc2CSc2ccc(Br)cc21 (stereo not drawn) [Compound 32, 2-Bromo-6,11-dihydro-N-(2,6-diisopropylphenyl)dibenzo[b,e]-thiepin-11-carboxamide]",67%,88%,> 300 mg/kg
